In patent US9394309B2, “Substituted phenylimidazopyrazoles and their use” (BAYER INTELLECTUAL PROPERTY GmbH, priority 2012, dated 2016) one finds IC50 data, which are given here for one molecule.

The target in one experiment is endogenous Tie2 receptor (Homo sapiens (Human), UniProt Q02763). Kind of experiment: Tie2-pTyr-ELISA (Tie2 autophosphorylation in HUVEC). The format is cell-based. The conditions noted are these: autophosphorylation elevated by 4 mM sodium orthovanadate, from 2-7 independent measurements. The protocol:
The cellular activity of the compounds according to the invention as Tie2 kinase inhibitors was determined in human endothelial cells (HUVEC) by measuring the inhibition of the autophosphorylation, elevated by treatment with sodium orthovanadate, of the endogenous Tie2 receptor by means of a Tie2/phosphotyrosine sandwich ELISA.
Human endothelial cells (human umbilical vein endothelial cells, HUVEC) were obtained from Cellsystems (FC-0003), cultured in Vasculife VEGF complete medium (Cellsystems, LL-1020) with 2% foetal calf serum (FCS) at 37° C./5% CO2 and used for Tie2-ELISA measurements up to passage 8.
HUVEC were plated in a culture volume of 100 μl of Vasculife VEGF complete medium at a cell density of 30 000 cells per well in transparent collagen-coated 96-well cell culture plates (Falcon, #353075) and incubated in an incubation cabinet at 37° C./5% CO2 overnight. The test substances dissolved in DMSO were used to prepare in each case one dilution series in Vasculife VEGF low-serum medium [basal medium with LifeFactors (Cellsystems, LM-0002), without FCS, with 0.1% BSA] without sodium orthovanadate and one dilution series in Vasculife VEGF low-serum-medium with 8 mM sodium orthovanadate in the desired concentrations in the range from […] to […], the final DMSO concentration being 1%. […]

The target in experiment [1] is intracellular domain of human Tie2 (GST fusion protein) (Homo sapiens (Human), UniProt Q02763). Nature of the experiment: Tie2 kinase assay (Tie2-TR-FRET). It is filed as biochemical. The conditions noted are these: ATP concentration 1 mM; in some cases means of several independent determinations. The protocol: The Tie2-inhibitory activity of the substances according to the invention was determined with the aid of one of the Tie2-TR-FRET assays described in the sections below at an ATP concentration of 1 mM (TR-FRET=Time-Resolved Fluorescence Resonance Energy Transfer):
The enzyme used was a recombinant fusion protein of glutathione S-transferase (GST) and the intracellular domain of human Tie2 (amino acids 776-1124) which was expressed in Baculovirus-infected insect cells (Hi5) and was purified by affinity chromatography on glutathione-Sepharose. Alternatively, it is also possible to use commercially available GST-His6-Tie2 fusion protein (ProQinase GmbH, Freiburg im Breisgau, Germany). The substrate used for the kinase reaction was the biotinylated peptide biotin-Ahx-[…] […]
The reaction was stopped by addition of 5 μl of a solution of TR-FRET detection reagents [200 nM streptavidin-XL665 and 2 nM PT66-Eu chelate, a europium chelate-labelled anti-phosphotyrosine antibody (Perkin-Elmer); alternatively, it is also possible to use PT66-Tb cryptate (Cisbio Bioassays, Codolet, France)] in aqueous EDTA solution [90 mM EDTA, 0.28% (w/v) bovine serum albumin (BSA) in 50 mM HEPES pH 7.5]. […] The amount of phosphorylated substrate was then determined by measuring the resonance energy transfer from PT66-Eu chelate to streptavidin-XL665. […]

endogenous Tie2 receptor, sequence (Q02763 23-1124): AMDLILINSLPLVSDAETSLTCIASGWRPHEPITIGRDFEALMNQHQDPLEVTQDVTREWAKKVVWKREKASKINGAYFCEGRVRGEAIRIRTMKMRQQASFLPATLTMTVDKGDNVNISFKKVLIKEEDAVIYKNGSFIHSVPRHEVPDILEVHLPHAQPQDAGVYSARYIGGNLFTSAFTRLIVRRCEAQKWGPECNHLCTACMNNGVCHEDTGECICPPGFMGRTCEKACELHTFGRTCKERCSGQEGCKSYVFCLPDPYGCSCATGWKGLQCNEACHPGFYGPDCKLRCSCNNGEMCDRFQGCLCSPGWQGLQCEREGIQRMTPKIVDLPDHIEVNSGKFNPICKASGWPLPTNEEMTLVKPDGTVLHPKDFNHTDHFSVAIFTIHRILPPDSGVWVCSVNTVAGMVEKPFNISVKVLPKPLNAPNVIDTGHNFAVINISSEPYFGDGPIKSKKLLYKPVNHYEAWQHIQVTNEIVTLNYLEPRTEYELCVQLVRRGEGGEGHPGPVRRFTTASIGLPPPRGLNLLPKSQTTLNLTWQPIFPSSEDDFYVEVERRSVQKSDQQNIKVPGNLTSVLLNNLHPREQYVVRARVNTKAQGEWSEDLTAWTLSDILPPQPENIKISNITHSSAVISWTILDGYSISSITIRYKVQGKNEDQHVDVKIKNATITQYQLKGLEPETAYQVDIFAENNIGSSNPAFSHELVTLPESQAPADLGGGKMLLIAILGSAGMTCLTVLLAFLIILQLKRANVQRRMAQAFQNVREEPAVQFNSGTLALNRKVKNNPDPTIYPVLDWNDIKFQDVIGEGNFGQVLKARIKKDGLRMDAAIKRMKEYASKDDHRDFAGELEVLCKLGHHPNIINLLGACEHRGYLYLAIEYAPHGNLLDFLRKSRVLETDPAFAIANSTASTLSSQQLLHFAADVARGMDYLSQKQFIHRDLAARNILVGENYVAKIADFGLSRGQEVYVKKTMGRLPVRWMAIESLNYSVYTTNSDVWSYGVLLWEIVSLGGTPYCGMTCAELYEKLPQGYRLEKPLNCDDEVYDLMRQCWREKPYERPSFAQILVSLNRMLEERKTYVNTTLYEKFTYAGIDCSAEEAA
intracellular domain of human Tie2 (GST fusion protein), sequence (Q02763 776-1124): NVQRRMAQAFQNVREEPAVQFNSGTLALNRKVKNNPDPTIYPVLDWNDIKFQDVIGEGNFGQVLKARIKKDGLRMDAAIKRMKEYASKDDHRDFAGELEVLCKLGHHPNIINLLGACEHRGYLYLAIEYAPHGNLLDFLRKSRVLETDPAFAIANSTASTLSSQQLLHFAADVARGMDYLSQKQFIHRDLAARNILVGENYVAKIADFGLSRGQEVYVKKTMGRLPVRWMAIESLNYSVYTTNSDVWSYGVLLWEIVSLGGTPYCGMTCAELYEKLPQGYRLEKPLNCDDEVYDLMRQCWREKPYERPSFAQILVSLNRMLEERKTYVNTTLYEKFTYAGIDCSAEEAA

One may read the IC50 as the midpoint of a concentration-inhibition curve. Lower therefore signals greater potency in that assay. In the case of `Cc1ccc(NC(=O)c2cc(C#N)cc(S(F)(F)(F)(F)F)c2)cc1-n1ccn2nc(-c3cn[nH]c3)cc12` [Example 85, 3-Cyano-N-{4-methyl-3-[6-(1H-pyrazol-4-yl)-1H-imidazo[1,2-b]pyrazol-1-yl]phenyl}-5-(pentafluoro-λ^6-sulphanyl)benzamide], the concentration for half-maximal inhibition (IC50) was 0.044 µM against endogenous Tie2 receptor and 0.02 µM in experiment [1].
